From patent US8609708B2 (Human BioMolecular Research Institute, priority 2003, dated 2013)
Like-named read-outs stand apart in the source and are kept apart here.

Legend:
[1] = target: CYP3A4 (Homo sapiens (Human), UniProt P08684); assay: CYP3A4 inhibition assay (testosterone 6-hydroxylation); settings: pH 7.5
Description: (§1) To gain insight into the selectivity of the synthetic compounds, nicotine, nicotine related alkaloids and nicotine metabolites for inhibition of other CYPs, we examined the major CYP present in human liver (i.e., CYP 3A4). […] A typical incubation mixture ([…] ), 0.5 mM NADP^+, 2.0 mM G6P, 1 U of G6P dehydrogenase, […] inhibitor was added last as to minimize interaction with the protein. After mixing on ice, the reaction was initiated by the addition of substrate and incubated at 37° C. with shaking in air. Organic extracts were injected onto a Hitachi L-7100 system equipped with a Hitachi L-7400 UV detector. Separations were done with an Altex Ultrasphere ODS (4.6 mm×250 mm, 5 μm) column. The analytes were eluted with an isocratic solvent system consisting of water/acetonitrile/methanol (30:10:60, v/v/v) at a flow rate of 1.0 mL/min. […] Quantification of substrate and metabolite was determined from peak areas of the chromatogram and comparison with standard curves. IC50 values were determined as described below.
(§2) To measure CYP3A4 activity, testosterone 6-hydroxylation was determined.

[2] = target: CYP3A4 relative to CYP2A6 (Homo sapiens (Human), UniProt P08684); assay: in vitro; settings: human
Description: as §1, §2

[3] = target: CYP2E1 (Homo sapiens (Human), UniProt P05181); assay: CYP2E1 Vivid blue substrate O-dealkylation inhibition; format: biochemical; settings: insect cell microsomes expressing CYP2E1, 0.2M potassium phosphate buffer; mean of at least 3 determinations ± SD; read-out: IC50 ± SD 2E1
[4] = target: CYP2E1 relative to CYP2A6 (Homo sapiens (Human), UniProt P05181); assay: as above; format: biochemical
[5] = target: CYP2B6 (Homo sapiens (Human), UniProt P20813); assay: CYP2B6 Vivid blue substrate O-dealkylation inhibition; format: biochemical; settings: insect cell microsomes expressing CYP2B6, 0.2M potassium phosphate buffer; mean of at least 3 determinations ± SD; read-out: IC50 ± SD 2B6
[6] = target: CYP2B6 relative to CYP2A6 (Homo sapiens (Human), UniProt P20813); assay: as above; format: biochemical; settings: recombinant CYP2B6 BACULOSOMES, pH 8, probe Vivid blue substrate (5 μM), O-dealkylation; human CYP2B6 versus human CYP2A6; read-out: Selectivity ratio (IC50 CYPX/IC50 CYP2A6) 2B6/2A6
[7] = target: CYP2C9 (Homo sapiens (Human), UniProt P11712); assay: CYP2C9 Vivid blue substrate O-dealkylation inhibition; format: biochemical; settings: insect cell microsomes expressing CYP2C9, 0.2M potassium phosphate buffer; mean of at least 3 determinations ± SD; read-out: IC50 ± SD 2C9
[8] = target: CYP2C9 relative to CYP2A6 (Homo sapiens (Human), UniProt P11712); assay: as above; format: biochemical; settings: recombinant CYP2C9 BACULOSOMES, pH 8, probe Vivid blue substrate (10 μM), O-dealkylation; human CYP2C9 versus human CYP2A6; read-out: Selectivity ratio (IC50 CYPX/IC50 CYP2A6) 2C9/2A6
[9] = target: CYP2C19 (Homo sapiens (Human), UniProt P33261); assay: CYP2C19 Vivid blue substrate O-dealkylation inhibition; format: biochemical; settings: insect cell microsomes expressing CYP2C19, 0.2M potassium phosphate buffer; mean of at least 3 determinations ± SD; read-out: IC50 ± SD 2C19
[10] = target: CYP2C19 relative to CYP2A6 (Homo sapiens (Human), UniProt P33261); assay: as above; format: biochemical; settings: recombinant CYP2C19 BACULOSOMES, pH 8, probe Vivid blue substrate (10 μM), O-dealkylation; human CYP2C19 versus human CYP2A6; read-out: Selectivity ratio (IC50 CYPX/IC50 CYP2A6) 2C19/2A6
[11] = target: CYP2D6 (Homo sapiens (Human), UniProt P10635); assay: CYP2D6 Vivid blue substrate O-dealkylation inhibition; format: biochemical; settings: insect cell microsomes expressing CYP2D6, 0.2M potassium phosphate buffer; mean of at least 3 determinations ± SD; read-out: IC50 ± SD 2D6
[12] = target: CYP2D6 relative to CYP2A6 (Homo sapiens (Human), UniProt P10635); assay: as above; format: biochemical; settings: recombinant CYP2D6 BACULOSOMES, pH 8, probe Vivid blue substrate (10 μM), O-dealkylation; human CYP2D6 versus human CYP2A6; read-out: Selectivity ratio (IC50 CYPX/IC50 CYP2A6) 2D6/2A6
[13] = target: T1, human CYP2A6 (Homo sapiens (Human), UniProt P11509); assay: CYP2A6 mediated coumarin 7-hydroxylation inhibition
[14] = target: mouse CYP2A5 (Mus musculus (Mouse), UniProt P20852); assay: Inhibition of mouse CYP2A5; format: biochemical; settings: read-out: IC50 mCYP2A5
[15] = target: T1, human CYP2A6; settings: human, pH 7.5
[16] = target: CYP2A13 (Homo sapiens (Human), UniProt Q16696); assay: Inhibition of human CYP2A13; settings: for inhibition at 1 µM: human
[17] = coumarin 7-hydroxylation, apparent Ki from IC50 by Cheng-Prusoff
[18] = read-out: IC50 ± SD 2A6, insect cell microsomes expressing CYP2A6, 0.1M Tris buffer, mean of at least 3 determinations ± SD

Chain of CYP3A4 relative to CYP2A6 (P08684 whole entry): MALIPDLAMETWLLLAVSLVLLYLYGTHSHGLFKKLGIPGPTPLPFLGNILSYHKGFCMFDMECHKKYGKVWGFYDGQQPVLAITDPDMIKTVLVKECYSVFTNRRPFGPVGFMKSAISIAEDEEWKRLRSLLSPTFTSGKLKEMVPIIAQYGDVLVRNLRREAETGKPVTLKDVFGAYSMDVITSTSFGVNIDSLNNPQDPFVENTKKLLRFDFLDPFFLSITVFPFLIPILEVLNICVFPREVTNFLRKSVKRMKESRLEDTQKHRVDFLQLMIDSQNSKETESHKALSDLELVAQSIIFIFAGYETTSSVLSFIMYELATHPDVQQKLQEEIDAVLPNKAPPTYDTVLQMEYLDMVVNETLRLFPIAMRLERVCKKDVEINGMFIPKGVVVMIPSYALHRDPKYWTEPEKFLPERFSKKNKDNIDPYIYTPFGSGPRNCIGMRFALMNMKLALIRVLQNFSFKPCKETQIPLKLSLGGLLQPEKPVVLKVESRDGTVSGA
T1 sequence (P11509 whole entry): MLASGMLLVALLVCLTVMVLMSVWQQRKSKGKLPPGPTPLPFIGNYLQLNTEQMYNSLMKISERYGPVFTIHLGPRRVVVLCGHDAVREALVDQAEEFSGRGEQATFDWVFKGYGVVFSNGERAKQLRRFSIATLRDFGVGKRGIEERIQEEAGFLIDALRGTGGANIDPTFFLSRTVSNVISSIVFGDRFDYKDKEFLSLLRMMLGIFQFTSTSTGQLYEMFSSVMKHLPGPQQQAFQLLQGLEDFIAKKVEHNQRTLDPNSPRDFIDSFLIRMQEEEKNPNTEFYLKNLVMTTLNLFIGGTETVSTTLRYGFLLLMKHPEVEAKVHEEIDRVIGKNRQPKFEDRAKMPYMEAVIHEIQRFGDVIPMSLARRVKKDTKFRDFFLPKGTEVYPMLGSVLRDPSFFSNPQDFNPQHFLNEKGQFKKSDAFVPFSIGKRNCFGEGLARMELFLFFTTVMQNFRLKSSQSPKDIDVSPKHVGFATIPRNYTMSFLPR
Chain of CYP2A13 (Q16696 whole entry): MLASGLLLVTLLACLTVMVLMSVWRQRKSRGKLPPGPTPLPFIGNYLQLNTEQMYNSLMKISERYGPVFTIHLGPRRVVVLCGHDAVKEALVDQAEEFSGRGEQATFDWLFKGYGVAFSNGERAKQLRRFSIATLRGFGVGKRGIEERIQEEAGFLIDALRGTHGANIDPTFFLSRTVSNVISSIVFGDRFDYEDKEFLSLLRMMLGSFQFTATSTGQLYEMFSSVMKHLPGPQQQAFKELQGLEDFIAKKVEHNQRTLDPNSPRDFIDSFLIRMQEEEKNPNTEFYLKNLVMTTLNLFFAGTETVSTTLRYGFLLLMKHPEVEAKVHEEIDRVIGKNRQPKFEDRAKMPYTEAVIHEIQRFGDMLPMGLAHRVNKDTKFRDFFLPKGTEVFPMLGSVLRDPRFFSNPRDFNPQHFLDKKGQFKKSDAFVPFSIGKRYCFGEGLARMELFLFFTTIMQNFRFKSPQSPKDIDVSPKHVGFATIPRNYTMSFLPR
Chain of mouse CYP2A5 (P20852 whole entry): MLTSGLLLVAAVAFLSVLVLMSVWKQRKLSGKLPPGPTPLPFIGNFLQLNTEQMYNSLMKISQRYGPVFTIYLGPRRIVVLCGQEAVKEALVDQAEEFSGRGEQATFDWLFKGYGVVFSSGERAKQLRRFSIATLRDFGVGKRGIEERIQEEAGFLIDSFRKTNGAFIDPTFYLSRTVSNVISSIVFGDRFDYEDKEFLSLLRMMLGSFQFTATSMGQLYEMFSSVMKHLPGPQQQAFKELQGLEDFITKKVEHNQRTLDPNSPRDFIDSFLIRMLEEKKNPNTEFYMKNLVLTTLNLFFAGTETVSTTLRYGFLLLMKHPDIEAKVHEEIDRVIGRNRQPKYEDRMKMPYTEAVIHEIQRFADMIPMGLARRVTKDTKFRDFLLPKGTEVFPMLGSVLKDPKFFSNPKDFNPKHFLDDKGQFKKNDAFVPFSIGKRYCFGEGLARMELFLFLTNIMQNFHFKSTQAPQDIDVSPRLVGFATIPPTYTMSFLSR
Chain of CYP2B6 relative to CYP2A6 (P20813 whole entry): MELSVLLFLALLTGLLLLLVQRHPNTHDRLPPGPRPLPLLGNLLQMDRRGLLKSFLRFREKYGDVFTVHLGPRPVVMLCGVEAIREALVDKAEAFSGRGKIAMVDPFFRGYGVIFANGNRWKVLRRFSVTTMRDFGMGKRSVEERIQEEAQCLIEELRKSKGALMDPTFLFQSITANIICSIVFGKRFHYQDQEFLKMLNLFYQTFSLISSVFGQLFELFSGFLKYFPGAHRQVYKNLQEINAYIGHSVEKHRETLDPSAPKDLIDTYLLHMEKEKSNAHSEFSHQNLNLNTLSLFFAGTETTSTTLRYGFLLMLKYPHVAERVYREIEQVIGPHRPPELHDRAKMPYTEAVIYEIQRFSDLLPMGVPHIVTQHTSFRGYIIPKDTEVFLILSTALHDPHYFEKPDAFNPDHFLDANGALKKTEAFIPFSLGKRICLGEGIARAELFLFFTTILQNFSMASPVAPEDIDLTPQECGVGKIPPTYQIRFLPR
Chain of CYP2B6 (P20813 whole entry): as above
Chain of CYP3A4 (P08684 whole entry): as the sequence (P08684 whole entry) above
Chain of CYP2C19 (P33261 whole entry): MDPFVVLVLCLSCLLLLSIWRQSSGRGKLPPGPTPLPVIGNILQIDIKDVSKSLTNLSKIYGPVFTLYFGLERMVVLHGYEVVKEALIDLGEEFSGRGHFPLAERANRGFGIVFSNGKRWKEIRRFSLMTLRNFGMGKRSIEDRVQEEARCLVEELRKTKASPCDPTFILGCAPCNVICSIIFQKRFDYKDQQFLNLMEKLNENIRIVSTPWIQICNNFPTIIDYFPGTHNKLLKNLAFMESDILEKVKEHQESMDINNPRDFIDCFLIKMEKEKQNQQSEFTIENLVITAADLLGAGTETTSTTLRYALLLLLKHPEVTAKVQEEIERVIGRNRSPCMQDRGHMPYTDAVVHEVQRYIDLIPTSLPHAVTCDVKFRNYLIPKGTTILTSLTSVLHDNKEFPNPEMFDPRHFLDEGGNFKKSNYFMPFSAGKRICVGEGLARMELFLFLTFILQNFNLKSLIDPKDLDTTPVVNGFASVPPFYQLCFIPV
Chain of CYP2C19 relative to CYP2A6 (P33261 whole entry): as above
Chain of CYP2C9 relative to CYP2A6 (P11712 whole entry): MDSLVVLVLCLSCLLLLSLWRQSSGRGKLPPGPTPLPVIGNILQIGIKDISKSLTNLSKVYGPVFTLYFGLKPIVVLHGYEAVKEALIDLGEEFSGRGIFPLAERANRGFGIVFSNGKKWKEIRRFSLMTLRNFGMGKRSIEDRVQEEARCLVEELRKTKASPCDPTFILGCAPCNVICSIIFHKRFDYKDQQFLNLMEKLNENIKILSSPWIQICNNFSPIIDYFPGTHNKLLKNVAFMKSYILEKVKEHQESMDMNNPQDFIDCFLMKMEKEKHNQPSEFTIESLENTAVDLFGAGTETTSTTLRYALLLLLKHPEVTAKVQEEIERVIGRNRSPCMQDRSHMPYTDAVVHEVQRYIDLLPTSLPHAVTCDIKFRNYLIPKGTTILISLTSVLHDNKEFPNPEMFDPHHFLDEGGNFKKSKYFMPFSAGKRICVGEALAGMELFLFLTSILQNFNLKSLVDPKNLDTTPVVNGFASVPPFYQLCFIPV
Chain of CYP2C9 (P11712 whole entry): as above

Compound: Nc1ccc(-c2cccnc2)s1 [Compound 57, 5-(Pyridin-3-yl)thiophen-2-amine]
- IC50 ([1]; read-out: IC50 ± SD 3A4, human liver microsomes, 0.05M potassium phosphate buffer, mean of at least 3 determinations ± SD): 6.3 ± 1.4 µM
- selectivity ratio ([2]; pH 7.5, 3A4/2A6 selectivity ratio (IC50 CYPX/IC50 CYP2A6)): 2
- selectivity ratio ([2]; pH 7.5, Selectivity ratio (IC50 CYPX/IC50 CYP2A6) 3A4/2A6): 2
- IC50 [3]: 31.1 ± 5.7 µM
- selectivity ratio at 40 min ([4]; recombinant CYP2E1 BACULOSOMES, pH 8, probe Vivid blue substrate (10 μM), O-dealkylation, human CYP2E1 versus human CYP2A6, read-out: Selectivity ratio (IC50 CYPX/IC50 CYP2A6) 2E1/2A6): 8.9
- IC50 [5]: 6.8 ± 0.8 µM
- selectivity ratio at 40 min [6]: 1.9
- IC50 [7]: 2.1 ± 0.2 µM
- selectivity ratio at 40 min [8]: 0.6
- IC50 [9]: 3.2 ± 0.2 µM
- selectivity ratio at 40 min [10]: 0.9
- IC50 [11]: 14.4 ± 0.9 µM
- selectivity ratio at 40 min [12]: 4.1
- Ki [13, 17]: 0.59 ± 0.05 µM
- Ki ([13]; coumarin 7-hydroxylation, unit inferred): 0.59 ± 0.05 µM
- IC50 [13, 18]: 3.5 ± 0.3 µM

Compound: c1ccc(Cn2cnc(-c3cccnc3)c2)cc1 [Compound 60, 3-(1-benzyl-1H-imidazol-4-yl)pyridine]
- IC50 ([1]; microsomes): 75.1 ± 13.9 µM
- selectivity ratio at 30 min ([2]; pH 7.5): > 54
- IC50 [3]: 0.58 ± 0.1 µM
- selectivity ratio at 40 min ([4]; human, pH 8): 0.4
- IC50 [5]: 5.3 ± 0.9 µM
- selectivity ratio at 40 min [6]: 4
- IC50 [7]: 26.9 ± 2.9 µM
- selectivity ratio at 40 min [8]: 19
- IC50 [9]: 12.1 ± 0.6 µM
- selectivity ratio at 40 min [10]: 9
- IC50 [11]: 36.3 ± 4.4 µM
- selectivity ratio at 40 min [12]: 26
- Ki [13, 17]: 0.23 ± 0.03 µM
- IC50 [13, 18]: 1.4 ± 0.2 µM

Compound: Cc1cscc1-c1cccnc1 [TD-I-103]
- IC50 [14]: 0.75 µM
- IC50 [15]: 1.85 ± 0.5 µM

Compound: Cc1ccsc1-c1cccnc1 [TD-II-025]
- IC50 [14]: 0.3 µM
- IC50 [16]: ~1 µM
- inhibition at 1 µM [16]: 51%

Compound: NCc1ccc(-c2cccnc2)s1 [TD-II-039]
- IC50 [14]: 0.5 µM

Compound: CNCc1ccc(-c2cccnc2)s1 [TD-IV-073 30]
- IC50 [14]: 0.9 µM
- inhibition at 1 µM [16]: 17%
- IC50 ([13]; read-out: CYP2A6 IC50, coumarin 7-hydroxylation): 1.1 ± 0.13 µM
